Reference: patent publication EP4707393A1, “DOUBLE-STRANDED SIRNA, CONJUGATE THEREOF AND USE THEREOF” (CMS Research & Development Pte. Ltd., priority 2023, dated 2024)

How the values were obtained:
[1] = tested on: human LPA gene (Genbank number: NM_005577.4); assay: Inhibitory activity against LPA mRNA, psiCHECK-2 dual-luciferase reporter vector in Huh7 cells; assay type: cell-based; conditions: Huh7 cells transfected with LPA_psiCHECK-2 plasmid, RNAiMAX transfection
Method in brief: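 Huh7 cells transfected with psiCHECK-2 carrying human LPA, then treated next day with compounds (3 concentrations) delivered by RNAiMAX. Dual-Glo readout of firefly and Renilla luciferase per well. Percent inhibition calculated from the reporter ratio relative to the RNAiMAX control.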

[2] = tested on: LPA mRNA; assay: In vivo efficacy in LPA-HDI mouse model (liver LPA mRNA); set-up: species or system BALB/c mouse; conditions: 3 mg/kg single subcutaneous injection, Day 14, relative to PBS blank group, 4 mice per group
Method: The knockdown effect of the test double-stranded siRNA conjugate on the target gene LPA upon entry into the mouse is evaluated by rapid high-pressure injection of the physiological saline containing recombinant plasmid pcDNA-LPA carrying the target gene via the tail vein.
pcDNA-LPA plasmid, BALB/c mouse, PBS (phosphate buffer), and conjugates of the present invention.
Six-week-old female BALB/c mice were ordered and acclimated/quarantined for three days upon arrival in the animal room.
On Day 0, the mice were randomly grouped based on body weight data. After grouping, all mice were given a single administration via subcutaneous injection, with a dose volume of 10 mL/kg. Mice in Group 1 received PBS; mice in the other groups received the conjugates (dissolved in PBS).
On Day 13 post-administration, all mice were injected with normal saline containing the pcDNA-LPA plasmid via the tail vein within 5 seconds. The injection volume (mL) = mouse body weight (g) × 8%. The amount of plasmid injected per mouse was 10 µg.
On Day 14 post-administration, all groups of mice were euthanized by CO2 inhalation, and 2 liver samples were collected from each mouse. Liver samples were treated overnight with RNAlater at 4 °C, then RNAlater was removed, and stored at -80 °C for detection of LPA gene expression levels.

Row | Substance | EC50 [1] | % Downregulation of LPA mRNA [2]
1 | Z42: siRNA conjugate: sense SEQ ID NO:49, ligand D01 at 3' end of sense strand, antisense SEQ ID NO:80 (sense CAGCCCCTTATTGTTATACGA; antisense NCGTATNACAATAAGGGGCNGTT; ligand D01 at sense 3' end; listed as RNA; modified_base 1: mod_base = OTHER; note = 2'-O-methylcytidine; modified_base 2: mod_base = OTHER; note = 2'-O-methyladenosine; modified_base 3: mod_base = OTHER; note = 2'-O-methylguanosine; modified_base 4..7: mod_base = OTHER; note = 2'-O-me; note = n is B33; note = 2'-deoxycytidine; modified_base 4: mod_base = OTHER; note = 2'-O-methyluridine; m) | 310 pM | 78.0%
2 | Z46: siRNA conjugate: sense SEQ ID NO:43, ligand D01 at 3' end of sense strand, antisense SEQ ID NO:66 (sense CAGCCCCTTATTGTTANACGA; antisense TCTCGTATNACAATAAGGGGCTG; ligand D01 at sense 3' end; listed as RNA; modified_base 1: mod_base = OTHER; note = 2'-O-methylcytidine; modified_base 2: mod_base = OTHER; note = 2'-O-methyladenosine; modified_base 3: mod_base = OTHER; note = 2'-O-methylguanosine; modified_base 4..7: mod_base = OTHER; note = 2'-O-me; note = 2'-O-methyluridine; modified_base 4: mod_base = OTHER; note = 2'-fluorocytidine; modified_base 5: mod_base = OTHER; note = 2'-O-methylg) | 310 pM | 89.0%
